Reference: ChEMBL document CHEMBL6092193, “Identification of furo[2,3-d]pyrimidin-4-ylsulfanyl-1,3,4-thiadiazole derivatives as novel FLT3-ITD inhibitors” (Eur J Med Chem, 2024)
Activity calls are given as the source filed them. No cut-off for these calls is given here.

What was measured:
MV4-11 [1] = test: Antiproliferative activity against human MV4-11 cells harboring homozygous FLT3-ITD mutant assessed as inhibition of cell growth incubated for 72 hrs by resazurin dye based fluorescence analysis; type: functional
[2] = target: High affinity nerve growth factor receptor (Homo sapiens) (UniProt P04629); test: Binding affinity to human TrkA (441 to 760 residues) expressed in baculovirus-infected Sf21 cells assessed as residual activity using poly(Glu:Tyr) as substrate in presence of ATP and [gamma-33P]ATP incubated for 30 mins by MRC Protein Phoshorylation and Ubiquitylation Unit based Express Panel assay
[3] = Selectivity ratio of GI50 for antiproliferative activity against human MV4-11 cells to GI50 for antiproliferative activity against human MOLM-13 cells
MV4-11 [4] = type: functional, Homo sapiens; conditions: dose 3.2 nM; time 24 hrs
MV4-11 [5] = test: Induction of cell cycle arrest in human MV4-11 cells assessed as proportion of cells at S phase at 3.2 nM incubated for 24 hrs by PI staining based flow cytometry (reference value: 25.97%); type: functional
MV4-11 [6] = test: Induction of cell cycle arrest in human MV4-11 cells assessed as proportion of cells at subG1 phase at 3.2 nM incubated for 24 hrs by PI staining based flow cytometry (reference value: 10.44%); type: functional
MV4-11 [7] = test: Induction of cell cycle arrest in human MV4-11 cells assessed as proportion of cells at S phase at 16 nM incubated for 24 hrs by PI staining based flow cytometry (reference value: 25.97%); type: functional
MV4-11 [8] = test: Induction of cell cycle arrest in human MV4-11 cells assessed as proportion of cells at G2/M phase at 16 nM incubated for 24 hrs by PI staining based flow cytometry (reference value: 10%); type: functional
MV4-11 [9] = type: functional, Homo sapiens; conditions: dose 400 nM; time 24 hrs
MV4-11 [10] = test: Induction of cell cycle arrest in human MV4-11 cells assessed as proportion of cells at S phase at 400 nM incubated for 24 hrs by PI staining based flow cytometry (reference value: 25.97%); type: functional
MV4-11 [11] = test: Induction of cell cycle arrest in human MV4-11 cells assessed as proportion of cells at G2/M phase at 400 nM incubated for 24 hrs by PI staining based flow cytometry (reference value: 10%); type: functional
MV4-11 [12] = test: Induction of cell cycle arrest in human MV4-11 cells assessed as proportion of cells at subG1 phase at 400 nM incubated for 24 hrs by PI staining based flow cytometry (reference value: 10.44%); type: functional
MV4-11 [13] = type: functional, Homo sapiens; conditions: dose 2000 nM; time 24 hrs
MV4-11 [14] = test: Induction of cell cycle arrest in human MV4-11 cells assessed as proportion of cells at G2/M phase at 2000 nM incubated for 24 hrs by PI staining based flow cytometry (reference value: 10%); type: functional
HL-60 [15] = test: Induction of cell cycle arrest in human HL-60 cells assessed as proportion of cells at G1 phase at 3.2 nM incubated for 24 hrs by PI staining based flow cytometry (reference value: 49.36%); type: functional
HL-60 [16] = test: Induction of cell cycle arrest in human HL-60 cells assessed as proportion of cells at G2/M phase at 3.2 nM incubated for 24 hrs by PI staining based flow cytometry (reference value: 14.52%); type: functional
HL-60 [17] = test: Induction of cell cycle arrest in human HL-60 cells assessed as proportion of cells at G1 phase at 16 nM incubated for 24 hrs by PI staining based flow cytometry (reference value: 49.36%); type: functional
HL-60 [18] = test: Induction of cell cycle arrest in human HL-60 cells assessed as proportion of cells at S phase at 16 nM incubated for 24 hrs by PI staining based flow cytometry (reference value: 36.12%); type: functional
HL-60 [19] = test: Induction of cell cycle arrest in human HL-60 cells assessed as proportion of cells at G2/M phase at 16 nM incubated for 24 hrs by PI staining based flow cytometry (reference value: 14.52%); type: functional
HL-60 [20] = test: Induction of cell cycle arrest in human HL-60 cells assessed as proportion of cells at subG1 phase at 16 nM incubated for 24 hrs by PI staining based flow cytometry (reference value: 6.94%); type: functional
HL-60 [21] = test: Induction of cell cycle arrest in human HL-60 cells assessed as proportion of cells at G1 phase at 80 nM incubated for 24 hrs by PI staining based flow cytometry (reference value: 49.36%); type: functional
HL-60 [22] = test: Induction of cell cycle arrest in human HL-60 cells assessed as proportion of cells at S phase at 80 nM incubated for 24 hrs by PI staining based flow cytometry (reference value: 36.12%); type: functional
HL-60 [23] = test: Induction of cell cycle arrest in human HL-60 cells assessed as proportion of cells at G2/M phase at 80 nM incubated for 24 hrs by PI staining based flow cytometry (reference value: 14.52%); type: functional
HL-60 [24] = test: Induction of cell cycle arrest in human HL-60 cells assessed as proportion of cells at subG1 phase at 80 nM incubated for 24 hrs by PI staining based flow cytometry (reference value: 6.94%); type: functional
HL-60 [25] = test: Induction of cell cycle arrest in human HL-60 cells assessed as proportion of cells at S phase at 400 nM incubated for 24 hrs by PI staining based flow cytometry (reference value: 36.12%); type: functional
[26] = target: Receptor-type tyrosine-protein kinase FLT3 (Homo sapiens) (UniProt P36888); test: Inhibition of FLT3 in human MV4-11 cells assessed as inhibition of FLT3 autophosphorylation at Tyr589/591 residues incubated for 1 hr by immunoblot analysis; type: cell-based; conditions: dose lower […], dose upper 2000.0 nM
[27] = target: Receptor-type tyrosine-protein kinase FLT3 (Homo sapiens) (UniProt P36888); test: Inhibition of FLT3 in human MV4-11 cells assessed as inhibition of STAT5 phosphorylation at Tyr694 residue incubated for 1 hr by immunoblot analysis; type: cell-based; conditions: dose lower […], dose upper 2000.0 nM
[28] = tested on: Receptor-type tyrosine-protein kinase FLT3 (Homo sapiens), P36888 [UNDEFINED MUTATION]; test: Inhibition of FLT3-ITD mutant (unknown origin) expressed in mouse BaF3 cells assessed as inhibition of FLT3 autophosphorylation at Tyr589/591 residues at 16 to 2000 nM incubated for 2 hrs by immunoblot analysis; type: cell-based; conditions: dose lower […], dose upper 2000.0 nM
[29] = tested on: Receptor-type tyrosine-protein kinase FLT3 (Homo sapiens), P36888 [UNDEFINED MUTATION]; test: Inhibition of FLT3-ITD mutant (unknown origin) expressed in mouse BaF3 cells assessed as inhibition of STAT5 phosphorylation at Tyr694 residue at 16 to 2000 nM incubated for 2 hrs by immunoblot analysis; type: cell-based; conditions: dose lower […], dose upper 2000.0 nM
[30] = tested on: Receptor-type tyrosine-protein kinase FLT3 (Homo sapiens), P36888 [UNDEFINED MUTATION]; test: Inhibition of FLT3-ITD mutant (unknown origin) expressed in mouse BaF3 cells assessed as inhibition of ERK1/2 phosphorylation at Thr202/Tyr204 residues at 16 to 2000 nM incubated for 2 hrs by immunoblot analysis; type: cell-based; conditions: dose lower […], dose upper 2000.0 nM
[31] = tested on: Receptor-type tyrosine-protein kinase FLT3 (Homo sapiens), P36888 [UNDEFINED MUTATION]; type: cell-based; conditions: BaF3, dose lower […], dose upper 2000.0 nM, time 2.0 hrs
[32] = tested on: Receptor-type tyrosine-protein kinase FLT3 (Homo sapiens), P36888 [UNDEFINED MUTATION]; type: cell-based; conditions: BaF3, dose lower […], dose upper 2000.0 nM, time 2.0 hrs; remark: listed apart in the source
K562 = test: cells; conditions: Homo sapiens, K562, 72 h
Description: Antiproliferative activity against FLT3-independent human K562 cells assessed as inhibition of cell growth incubated for 72 hrs by resazurin dye based fluorescence analysis

Kasumi 1 = test: cells; conditions: Homo sapiens, Kasumi 1, 72 h
Description: Antiproliferative activity against human Kasumi 1 cells harboring KIT N822K mutant assessed as inhibition of cell growth incubated for 72 hrs by resazurin dye based fluorescence analysis

BaF3 [33] = test: cells; conditions: Mus musculus, BaF3, 72 h
Description: Antiproliferative activity against mouse BaF3 cells assessed as inhibition of cell growth incubated for 72 hrs by resazurin dye based fluorescence analysis

BaF3 [34] = test: cells; conditions: Mus musculus, BaF3, 72 h; remark: listed apart in the source

Sequence of Receptor-type tyrosine-protein kinase FLT3 (Homo sapiens), P36888 [UNDEFINED MUTATION] (P36888 whole entry, looked up, change not shown): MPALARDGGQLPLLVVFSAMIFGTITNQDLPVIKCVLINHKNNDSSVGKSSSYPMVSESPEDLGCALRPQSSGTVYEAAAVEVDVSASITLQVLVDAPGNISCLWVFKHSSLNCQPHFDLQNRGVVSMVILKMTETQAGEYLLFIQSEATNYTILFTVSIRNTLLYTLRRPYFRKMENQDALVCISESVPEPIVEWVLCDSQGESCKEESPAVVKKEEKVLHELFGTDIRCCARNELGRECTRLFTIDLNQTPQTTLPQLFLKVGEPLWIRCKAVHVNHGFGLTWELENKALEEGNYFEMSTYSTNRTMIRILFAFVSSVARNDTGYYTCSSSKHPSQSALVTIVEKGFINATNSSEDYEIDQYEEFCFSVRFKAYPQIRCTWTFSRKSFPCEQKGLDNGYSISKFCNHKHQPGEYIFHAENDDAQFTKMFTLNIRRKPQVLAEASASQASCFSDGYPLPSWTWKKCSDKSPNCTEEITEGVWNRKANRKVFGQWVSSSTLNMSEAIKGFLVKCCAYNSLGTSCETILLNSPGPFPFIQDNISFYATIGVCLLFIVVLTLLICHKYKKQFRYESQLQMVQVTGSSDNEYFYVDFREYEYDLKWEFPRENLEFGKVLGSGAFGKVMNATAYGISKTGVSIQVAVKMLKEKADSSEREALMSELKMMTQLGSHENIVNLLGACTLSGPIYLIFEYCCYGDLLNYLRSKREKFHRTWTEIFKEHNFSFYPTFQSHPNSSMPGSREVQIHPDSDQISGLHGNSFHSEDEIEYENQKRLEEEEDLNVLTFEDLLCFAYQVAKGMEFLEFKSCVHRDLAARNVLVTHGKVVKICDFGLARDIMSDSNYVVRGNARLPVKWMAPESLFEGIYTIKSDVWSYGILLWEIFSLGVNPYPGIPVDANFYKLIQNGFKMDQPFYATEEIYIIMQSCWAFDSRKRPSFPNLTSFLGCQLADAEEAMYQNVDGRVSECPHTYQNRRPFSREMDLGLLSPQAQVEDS
Sequence of Receptor-type tyrosine-protein kinase FLT3 (Homo sapiens) (P36888 whole entry): as the sequence (P36888 whole entry, looked up, change not shown) above
Sequence of High affinity nerve growth factor receptor (Homo sapiens) (P04629 33-796 limits assumed): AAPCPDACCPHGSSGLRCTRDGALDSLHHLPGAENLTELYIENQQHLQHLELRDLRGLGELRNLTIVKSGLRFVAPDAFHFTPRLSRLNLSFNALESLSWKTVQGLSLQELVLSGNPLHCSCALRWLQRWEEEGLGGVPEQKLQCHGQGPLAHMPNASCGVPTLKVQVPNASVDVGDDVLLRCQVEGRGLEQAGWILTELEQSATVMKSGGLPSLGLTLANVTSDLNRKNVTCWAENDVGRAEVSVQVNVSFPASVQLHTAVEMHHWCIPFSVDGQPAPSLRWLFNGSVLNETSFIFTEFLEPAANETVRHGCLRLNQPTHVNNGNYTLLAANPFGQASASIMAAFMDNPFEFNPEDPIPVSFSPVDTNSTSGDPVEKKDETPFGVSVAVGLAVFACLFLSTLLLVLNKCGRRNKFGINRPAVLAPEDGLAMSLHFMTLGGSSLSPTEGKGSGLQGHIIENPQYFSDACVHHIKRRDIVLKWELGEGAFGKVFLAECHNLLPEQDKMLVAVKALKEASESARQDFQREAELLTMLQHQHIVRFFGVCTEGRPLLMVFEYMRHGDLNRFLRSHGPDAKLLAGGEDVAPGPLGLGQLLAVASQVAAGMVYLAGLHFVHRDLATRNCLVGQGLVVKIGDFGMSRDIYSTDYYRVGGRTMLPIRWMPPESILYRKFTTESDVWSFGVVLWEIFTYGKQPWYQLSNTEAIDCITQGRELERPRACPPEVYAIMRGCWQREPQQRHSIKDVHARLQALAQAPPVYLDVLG

## COc1ccc(NC(=O)Nc2nnc(Sc3ncnc4oc(-c5ccccc5)cc34)s2)cc1
MV4-11 [1]
  GI50: 105 nM
[2]
  Activity: < 50%
[3]
  RatioGI50: 100
MV4-11 [4]
  Activity: 72.92%
MV4-11 [5]
  Activity: 20.86%
MV4-11 [6]
  Activity: 12.84%
MV4-11 [7]
  Activity: 8.07%
MV4-11 [8]
  Activity: 2.63%
MV4-11 [9]
  Activity: 94.09%
MV4-11 [10]
  Activity: 4.48%
MV4-11 [11]
  Activity: 1.43%
MV4-11 [12]
  Activity: 32.95%
MV4-11 [13]
  Activity: 93.13%
MV4-11 [14]
  Activity: 1.1%
HL-60 [15]
  Activity: 49.95%
HL-60 [16]
  Activity: 13.04%
HL-60 [17]
  Activity: 48.76%
HL-60 [18]
  Activity: 37.68%
HL-60 [19]
  Activity: 13.57%
HL-60 [20]
  Activity: 7.48%
HL-60 [21]
  Activity: 49.29%
HL-60 [22]
  Activity: 37.03%
HL-60 [23]
  Activity: 13.68%
HL-60 [24]
  Activity: 8.17%
HL-60 [25]
  Activity: 35.91%
[26]
  inhibition: Dose-dependent-effect
[27]
  inhibition: Dose-dependent-effect
[28]
  inhibition: Active
[29]
  inhibition: Active
[30]
  inhibition: Active
[31]
  inhibition: Active
[32]
  inhibition: Active
K562
  GI50: > 10 µM
Kasumi 1
  GI50: 3.06 µM
BaF3 [33]
  GI50: > 10 µM
BaF3 [34]
  GI50: 277 nM
